This note sets out measurements from patent publication US20150203561A1, “BETA THYMOSIN FRAGMENTS” (REGENERX BIOPHARMACEUTICALS, INC., priority 2008, published 2015).

In data set [1] the test system is tissue damage caused by UV radiation. Nature of the data set: UV radiation tissue damage (summary table). Also on record: key: P = active; U = useful. Particulars: summary of peptide uses.
The next data set has as its system L1. Nature of the data set: Stimulation of L1 production (summary table). Also noted: key: P = active; U = useful. Particulars: summary of peptide uses.
The test system of data set [2] is p65 subunit of NFkB in human corneal epithelial cells. Nature of the data set: NFkB nuclear translocation. Format: cell-based. Also on record: key: P = active; U = useful. Particulars: summary of peptide uses. How it is done: Analysis of NFkB Nuclear Translocation • Human corneal epithelial cells were cultured to 80% confluence • Cells were pre-treated with 1 μg/ml Tb4 or peptide 4A or 6A for one hour • Cells were stimulated with 10 ng/ml TNF-a in the presence or absence of Tb4 or peptides for 15 minutes • Cells were fixed and labeled with antibodies to the p65 subunit of NFkB

The test system of another data set is neuron survival. Nature of the data set: Promotion of neuron survival (summary table). Also on record: key: P = active; U = useful. Particulars: summary of peptide uses.
In data set [3] the test system is Transformed human corneal epithelial cells (HCET). Nature of the data set: Collagen type IV secretion ELISA. Also on record: key to Stimulates collagen IV: P = active; U = useful. Particulars: for Stimulates collagen IV: summary of peptide uses. Format: cell-based. How it is done:
Effect of Tb4 and peptides on collagen type IV secretion • Transformed human corneal epithelial cells (HCET) were cultured to 80% confluence • Cells were treated with 1 μg/ml Tb4 or peptides for 24 hours • Culture supernatant samples (n=3 per experiment, total of 4 experiments) were analyzed using a collagen type IV ELISA • Data was analyzed using the t-test
On the technique in general: ELISA stands for enzyme-linked immunosorbent assay.

A further data set concerns neurite outgrowth. Nature of the data set: Promotion of neurite outgrowth (summary table). Also on record: key: P = active; U = useful. Particulars: summary of peptide uses.
The subject of data set [4] is human dermal fibroblasts. Nature of the data set: Elastin secretion, colorimetric assay. Particulars: for Stimulates Elastin: summary of peptide uses. Also on record: key to Stimulates Elastin: P = active; U = useful. Format: cell-based. How it is done:
Effect of Tb4 and peptides on elastin secretion • Human dermal fibroblasts (Fb) were cultured to 80% confluence • Cells were treated with 1 μg/ml Tb4 or peptides for 24, 48, or 72 hours. Cells were treated once/day. • Culture supernatants (n=3, experiments repeated 6 times) were assayed for elastin secretion using a colorimetric assay • Data was analyzed using the t-test

For data set [5], the system named is human dermal fibroblasts. Nature of the data set: LDH cytotoxicity assay in human dermal fibroblasts exposed to cytotoxic agents. Format: cell-based. Also on record: key to Protects from cytotoxicity: P = active; U = useful. Particulars: summary of peptide uses. How it is done:
Dose Response Analysis of Peptide 3A • Human dermal fibroblasts (Fb, Cascade Biologics, OR) were cultured to 80% confluence • 2 ml CHX (0.002%) in basal medium ±1 μg/ml Tb4 or 1.0, 0.1, 0.01, or 0.001 μg/ml peptide 3A was added to Fb for 1, 2, 3, or 4 hours • 100 μl culture medium (n=4) was added to 100 μl LDH reagent and incubated at room temperature for 20 minutes • OD500 nm was read and averages ±SEM were calculated • Data was analyzed with probability of p≦0.05

A further data set concerns human dermal Fb. Nature of the data set: CHX-induced apoptosis (APOPercentage dye) in human dermal Fb. Particulars: summary of peptide uses. Also noted: key to Inhibits apoptosis: P = active; U = useful. Format: cell-based. How it is done: Effect of Tb4 and Peptide 3A on CHX-induced apoptosis • Human dermal Fb were cultured to 80% confluence • Fb were treated with 0.002% CHX+1 μg/ml Tb4 or peptide 3A, 4A or 6A for 1.5 hours • APOPercentage “dye” was added to the Fb cultures at a 1:50 dilution for an additional 30 minutes • Excess dye was washed from the cells, and digital images were captured. Cells dyed red were apoptotic • Adobe Photoshop was used to calculate the number of red pixels in six digitized images for each treatment • Statistical analysis was done using the t-test

For another data set, the system named is cell migration. Nature of the data set: Stimulation of migration (summary table). Format: cell-based. Also noted: key: P = active; U = useful. Particulars: summary of peptide uses.
In data set [6] the test system is human dermal fibroblasts. Nature of the data set: Collagen secretion, colorimetric assay. Format: cell-based. Also on record: key to Stimulates collagens / Inhibits collagens: P = active; U = useful. Particulars: summary of peptide uses. How it is done: Effect of Tb4 and peptides on collagen secretion • Human dermal fibroblasts (Fb) were cultured to 80% confluence • Cells were treated with 1 μg/ml Tb4 or peptides for 24, 48, or 72 hours. Cells were treated once/day. • Culture supernatants (n=3, experiments repeated 5 times) were assayed for collagen secretion using a colorimetric assay that detects collagen types I, II, III, IV and V, and possibly VII

Data set [7] concerns TNF-a-stimulated IL8 secretion. Nature of the data set: Suppression of inflammation (summary table; IL-8 secretion). Format: cell-based, human. Also noted: key: P = active; U = useful. Particulars: summary of peptide uses. How it is done: (§1) Analysis of IL-8 Secretion • Human corneal epithelial cells or dermal Fb were cultured to 80% confluence • Cells were pre-treated with 1 μg/ml Tb4 or peptides for one hour • Cells were stimulated with 10 ng/ml TNF-a in the presence or absence of Tb4 or peptides • Culture medium was analyzed for secreted IL-8 by ELISA (n=3, experiments repeated twice) • Data was analyzed using the t-test

The next data set has as its system dermal Fb. Nature of the data set: TNF-a-stimulated IL-8 secretion ELISA, dermal fibroblasts. Format: cell-based, human. Particulars: 1 μg/ml, 10 ng/ml TNF-a. How it is done:
as §1

The test system of the next data set is T-lymphocyte. Nature of the data set: Impaired T-lymphocyte blastogenic response (summary table). Particulars: summary of peptide uses. Also on record: key: P = active; U = useful.
The next data set concerns the target T1, IKKb (Homo sapiens, UniProt O14920).
T1 sequence (O14920 1-756): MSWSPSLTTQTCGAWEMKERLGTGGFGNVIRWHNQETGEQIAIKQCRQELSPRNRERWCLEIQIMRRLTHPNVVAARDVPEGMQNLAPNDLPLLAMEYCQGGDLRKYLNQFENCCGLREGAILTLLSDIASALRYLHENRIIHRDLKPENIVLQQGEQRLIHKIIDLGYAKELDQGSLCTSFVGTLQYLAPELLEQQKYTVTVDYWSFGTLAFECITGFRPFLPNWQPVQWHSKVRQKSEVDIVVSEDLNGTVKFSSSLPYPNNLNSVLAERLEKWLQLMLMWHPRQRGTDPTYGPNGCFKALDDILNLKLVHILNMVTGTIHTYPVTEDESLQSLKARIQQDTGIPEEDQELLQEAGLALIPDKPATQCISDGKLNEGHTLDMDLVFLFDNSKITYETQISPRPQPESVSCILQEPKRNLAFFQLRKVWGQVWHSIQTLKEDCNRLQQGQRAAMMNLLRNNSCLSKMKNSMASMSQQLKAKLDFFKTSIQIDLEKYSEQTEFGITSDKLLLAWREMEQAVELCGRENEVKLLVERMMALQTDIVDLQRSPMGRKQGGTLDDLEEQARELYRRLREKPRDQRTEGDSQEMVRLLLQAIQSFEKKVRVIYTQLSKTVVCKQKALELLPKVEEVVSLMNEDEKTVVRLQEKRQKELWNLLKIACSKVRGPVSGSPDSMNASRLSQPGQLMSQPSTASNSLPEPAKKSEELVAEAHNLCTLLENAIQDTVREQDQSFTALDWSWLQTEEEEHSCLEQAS
Nature of the data set: Cell-free IkBa phosphorylation ELISA (NFkB signaling pathway). Format: biochemical. Also on record: key to Inhibits IkBa phosphorylation: P = active; U = useful. Particulars: summary of peptide uses. How it is done:
Effect of Tb4 and peptides on the NFkB signaling pathway • Cell-free assay • Prepared 1.0, 0.1, and 0.01 ng/ml solutions of Tb4 or peptides in kinase buffer supplied with kit • Added 10 μl of the solutions to wells of a 96-well plate coated with lkBa • IKKb (20 mU) was added to wells • 90 μl kinase reaction buffer (containing ATP) was added to the wells • ELISA to detect phosphorylated lkBa

Turning to “H-Leu-Lys-Lys-Thr-Glu-Thr-Gln-OH (H-LKKTETQ-OH) [Peptide 4A]”, in data set [1], the “Inhibits tissue damage caused by UV radiation” value (“Inhibits tissue damage caused” below) was “U” and the “Protects tissue from UV radiation damage” value was “U”. Moreover, the “Stimulates L1 production” value in the data set with L1 is “U”. Also, the “Inhibits NFkB translocation” value in data set [2] is “P”. Besides, in the data set on neuron survival, the Promotes neuron survival entry is “U”. Also, the “Collagen type IV secretion” value in [3] (corneal epithelial cells, 1 μg/ml, 24 hours) is on record as “stimulate”. For the same substance, the “Stimulates collagen IV” value in data set [3] was “P”. Also, the Promotes neurite outgrowth result with neurite outgrowth is given as “U”. Also, the Secretion of elastin result with human dermal fibroblasts [4] (dermal Fb, 1 μg/ml once/day, 24, 48, or 72 hours) is listed as “stimulates”. Besides, in the data set with human dermal fibroblasts [4], the “Stimulates Elastin” value is “P”.
Consider “H-SDKPDMAEIEKFDKSKLKKTETQ-OH [Fragment Ba]”, for which the Protects from cytotoxicity entry with human dermal fibroblasts [5] is recorded as “U”. The Inhibits apoptosis result with human dermal Fb is reported as “U”. Moreover, the “Stimulates Migration” value in the data set with cell migration was “U”. Moreover, in [1], the “Inhibits tissue damage caused” value was “U” and the “Protects tissue from UV radiation damage” value was “U”. In addition, the “Stimulates L1 production” value in the data set on L1 is “U”. Moreover, the Inhibits collagens entry in the data set with human dermal fibroblasts [6] is reported as “U”. For the same substance, the Suppresses inflammation result in data set [7] was “U”. Besides, the “Inhibits NFkB translocation” value in data set [2] is “U”. In the data set on neuron survival, the Promotes neuron survival result is on record as “U”. Further, the “Stimulates collagen IV” value in data set [3] was “U”. Further, in the data set on neurite outgrowth, the Promotes neurite outgrowth result is “U”. Also, the “Stimulates Elastin” value in the data set with human dermal fibroblasts [4] is “U”.
For “Ac-Ser-Asp-Lys-Pro-OH (Ac-SDKP-OH) [Peptide 2B]”, the “Stimulates Migration” value with cell migration was “P”. Also, in [1], the “Inhibits tissue damage caused” value is given as “U” and the “Protects tissue from UV radiation damage” value is “U”. In addition, the “Stimulates L1 production” value with L1 is “U”. Moreover, in the data set on dermal Fb, the “Suppression of TNF-a-stimulated IL8 secretion” value is “suppress”. Also, the Suppresses inflammation result in data set [7] is “P”. Further, the Promotes neuron survival entry with neuron survival is listed as “U”. Moreover, the Promotes neurite outgrowth entry in the data set on neurite outgrowth is listed as “U”.
As for “Ac-Leu-Lys-Lys-Thr-Glu-Thr-Gln-Glu-Lys-Asn-Pro-Leu-Pro-Ser-Lys-Glu-Thr-Ile-Glu-Gln-Glu-Lys-Gln-Ala-Gly-Glu-Ser-OH (Ac-LKKTETQEKNPLPSKETIEQEKQAGES-OH) [Fragment Db]”, the “Restores impaired T-lymphocyte blastogenic response” value with T-lymphocyte is reported as “U”. Moreover, in [1], the “Inhibits tissue damage caused” value was “U” and the “Protects tissue from UV radiation damage” value is on record as “U”. The “Stimulates L1 production” value in the data set with L1 is given as “U”. For the same substance, in the data set with human dermal fibroblasts [6], the Inhibits collagens entry is on record as “U”. Moreover, in the data set with IKKb, the “Inhibits IkBa phosphorylation” value is reported as “U”. Besides, the Promotes neuron survival result with neuron survival was “U”. Besides, the Promotes neurite outgrowth result in the data set on neurite outgrowth is on record as “U”. Further, the “Stimulates Elastin” value in the data set with human dermal fibroblasts [4] is on record as “U”.
Turning to “H-SDKPDMAEIEKFDKSKLKKTET-OH [Fragment Aa]”, the Protects from cytotoxicity entry with human dermal fibroblasts [5] is given as “U”. The Inhibits apoptosis result in the data set with human dermal Fb was “U”. For the same substance, the “Stimulates Migration” value with cell migration is reported as “U”. In data set [1], the “Inhibits tissue damage caused” value is given as “U” and the “Protects tissue from UV radiation damage” value is reported as “U”. The “Stimulates L1 production” value in the data set on L1 is listed as “U”. The Inhibits collagens entry in the data set with human dermal fibroblasts [6] is “U”. Moreover, the Suppresses inflammation entry in data set [7] is on record as “U”. In addition, in data set [2], the “Inhibits NFkB translocation” value is “U”. The Promotes neuron survival result with neuron survival was “U”. In [3], the “Stimulates collagen IV” value is recorded as “U”. Besides, the Promotes neurite outgrowth result in the data set with neurite outgrowth was “U”. Also, the “Stimulates Elastin” value in the data set on human dermal fibroblasts [4] is given as “U”.
For “H-Leu-Lys-Lys-Thr-Glu-Thr-Gln-Glu-Lys-Asn-Pro-Leu-Pro-Ser-Lys-Glu-Thr-Ile-Glu-Gln-Glu-Lys-Gln-Ala-Gly-Glu-Ser-OH (H-LKKTETQEKNPLPSKETIEQEKQAGES-OH) [Fragment Da]”, in the data set with T-lymphocyte, the “Restores impaired T-lymphocyte blastogenic response” value was “U”. Also, in data set [1], the “Inhibits tissue damage caused” value is listed as “U” and the “Protects tissue from UV radiation damage” value is “U”. In the data set with L1, the “Stimulates L1 production” value was “U”. Besides, the Inhibits collagens result in the data set with human dermal fibroblasts [6] is reported as “U”. The “Inhibits IkBa phosphorylation” value with IKKb is “U”. Besides, in the data set on neuron survival, the Promotes neuron survival result is given as “U”. Besides, the Promotes neurite outgrowth result in the data set on neurite outgrowth was “U”. Besides, the “Stimulates Elastin” value in the data set on human dermal fibroblasts [4] is given as “U”.
